Counter-ions that a name gives are not always drawn.
Tested on: not given
Assay: not given
Details: not given

melting point [°C] | SMILES
210 to 213.9 | Cn1c(COc2ccc(Cl)cc2C(=O)c2cc(Cl)cc(C#N)c2)n[nH]c1=O
95.2 to 100.7 | Cn1c(COc2ccc(Br)c(Oc3cc(Cl)cc(C#N)c3)c2)n[nH]c1=O
179 to 180 | CCc1ccc(OCc2n[nH]c(=O)n2C)c(F)c1Oc1cc(Cl)cc(C#N)c1
193 to 194 | Cn1c(COc2ccc(Br)c(F)c2Oc2cc(C#N)cc(C(F)F)c2)n[nH]c1=O
160 to 161 | CCc1ccc(OCc2n[nH]c(=O)n2C)c(Oc2cc(C#N)cc(C(F)F)c2)c1F
212.4 to 214.2 | Cn1c(CCc2ccc(Br)c(F)c2Oc2cc(Cl)cc(C#N)c2)n[nH]c1=O
164 to 166 | CCc1cc(C#N)cc(Oc2c(OCc3n[nH]c(=O)n3C)ccc(CC)c2F)c1
166 to 168 | CCc1ccc(OCc2n[nH]c(=O)n2C)c(Oc2cc(C#N)cc(C3CC3)c2)c1F
197.1 to 202.1 | Cn1c(COc2ccc(Br)c(F)c2Oc2cc(C#N)cc(CC(F)(F)F)c2)n[nH]c1=O
224.4 to 225.6 | Cn1c(COc2ccc(Cl)c(Oc3cc(Cl)cc(C#N)c3)c2Cl)n[nH]c1=O
176 to 177 | Cn1c(COc2ccc(Cl)cc2Oc2cc(Cl)cc(C#N)c2)n[nH]c1=O
184.5 to 185.3 | Cn1c(COc2ccc(Cl)c(Oc3cc(C#N)cc(C(F)F)c3)c2F)n[nH]c1=O
192.5 to 193 | Cn1c(COc2ccc(Br)c(F)c2Oc2cc(Cl)cc(C#N)c2)n[nH]c1=O
205.5 to 207 | Cn1c(COc2ccc(Br)c(F)c2Oc2cc(C#N)cc(C#N)c2)n[nH]c1=O
186 to 187 | Cn1c(CCc2ccc(Br)c(Oc3cc(Cl)cc(C#N)c3)c2F)n[nH]c1=O

SMILES | melting point [°C]
Cn1c(COc2ccc(Cl)c(Oc3cc(Cl)cc(C#N)c3)c2F)n[nH]c1=O (as salt: salt) [Compound I-2, 3-Chloro-5-[6-chloro-2-fluoro-3-(4-methyl-5-oxo-4,5-dihydro-1H-[1,2,4]triazol-3-ylmethoxy)-phenoxy]-benzonitrile; formate salt] | 221 to 225
Cn1c(COc2ccc(Br)c(Oc3cc(C#N)cc(C(F)F)c3)c2F)n[nH]c1=O (as salt: salt) [Compound I-4, 3-[6-Bromo-2-fluoro-3-(4-methyl-5-oxo-4,5-dihydro-1H-[1,2,4]triazol-3-ylmethoxy)-phenoxy]-5-difluoromethyl-benzonitrile; trifluoro-acetic acid salt] | 199.2 to 201

Tested on: HXB2-strain of HIV
Assay: Antiviral assay: protection of HIV-infected MT4 cells from virus-mediated cell death (MTT)
Format: cell-based
Details: Human immunodeficiency virus 1, HXB2, MT4, 120 h, read-out: Antiviral Assay IC50
Description: Anti-HIV antiviral activity was assessed using an adaptation of the method of Pauwels et al. (J. Virol. Methods 1988 20:309-321). The method is based on the ability of compounds to protect HIV-infected T lymphoblastoid cells (MT4 cells) from cell-death mediated by the infection. The endpoint of the assay was calculated as the concentration of compound at which the cell viability of the culture was preserved by 50% (‘50% inhibitory concentration’, IC50). The cell viability of a culture was determined by the uptake of soluble, yellow 3-[4,5-dimethylthiazol-2-yl]-2,5-diphenyltetrazolium bromide (MTT) and its reduction to a purple insoluble formazan salt. After solubilization, spectrophotometric methods were employed to measure the amount of formazan product. […]
A fresh solution of 5 mg/mL MTT was prepared in 0.01 M phosphate buffered saline, pH 7.2 and 20 microliters added to each culture. […] When the formazan deposit was fully solubilized by further mixing, the absorbance (OD) of the cultures was measured at 540 nm and 690 nm wavelength (690 nm readings were used as blanks for artifacts between wells). The percent protection for each treated culture was then calculated from the equation: […]

SMILES | IC50 [nM]
Cn1c(COc2ccc(Cl)c(Oc3cc(Cl)cc(C#N)c3)c2F)n[nH]c1=O [Compound I-2, 3-Chloro-5-[6-chloro-2-fluoro-3-(4-methyl-5-oxo-4,5-dihydro-1H-[1,2,4]triazol-3-ylmethoxy)-phenoxy]-benzonitrile; formate salt] | 1.5
Cn1c(COc2ccc(Br)c(Oc3cc(C#N)cc(C(F)F)c3)c2F)n[nH]c1=O [Compound I-4, 3-[6-Bromo-2-fluoro-3-(4-methyl-5-oxo-4,5-dihydro-1H-[1,2,4]triazol-3-ylmethoxy)-phenoxy]-5-difluoromethyl-benzonitrile; trifluoro-acetic acid salt] | 0.7

From patent US7906540B2, “Non-nucleoside reverse transcriptase inhibitors” (Roche Palo Alto LLC, priority 2007, dated 2011)
